{"source": "paper PMC12195231", "about": "“Afil, a Lectin from Aplysina fistularis, Exhibits Antibiofilm and Synergistic Antibacterial Activity Against Resistant Bacteria” (Microorganisms, 2025)", "target": "T1, AfiL", "T1 construct": "native, purified from sponge tissue (ammonium sulfate, Sepharose 4B, lactose elution); 70 kDa disulfide-linked dimer, ~30 kDa subunits; internal stretch […]", "test": "isothermal titration calorimetry", "format": "binding, Aplysina fistularis", "conditions": "TBS (20 mM Tris-HCl pH 7.6, 150 mM NaCl), 25 °C; one-set-of-sites model"}
{"smiles": "OC[C@H]1O[C@@H](O[C@H]2[C@H](O)[C@@H](O)C(O)O[C@@H]2CO)[C@H](O)[C@@H](O)[C@H]1O", "note": "(stereo partly drawn) [D-lactose]", "values": [{"measurement": "Kd", "result": 10.2, "unit": "µM"}]}
